Experimental findings from patent publication US11780845B2 (Relay Therapeutics, Inc., priority 2019, dated 2023) are described below.

One test has as its system SNU-16. As to the kind of experiment: Cell SNU-16 assay. The format is cell-based.
The next test addresses FGFR2 (Homo sapiens (Human), UniProt P21802). As to the kind of experiment: Biochemical FGFR2 Caliper assay.
Setting [1] is: Homo sapiens, SNU-16, SNU-16 cells.

FGFR2, sequence (P21802 22-821): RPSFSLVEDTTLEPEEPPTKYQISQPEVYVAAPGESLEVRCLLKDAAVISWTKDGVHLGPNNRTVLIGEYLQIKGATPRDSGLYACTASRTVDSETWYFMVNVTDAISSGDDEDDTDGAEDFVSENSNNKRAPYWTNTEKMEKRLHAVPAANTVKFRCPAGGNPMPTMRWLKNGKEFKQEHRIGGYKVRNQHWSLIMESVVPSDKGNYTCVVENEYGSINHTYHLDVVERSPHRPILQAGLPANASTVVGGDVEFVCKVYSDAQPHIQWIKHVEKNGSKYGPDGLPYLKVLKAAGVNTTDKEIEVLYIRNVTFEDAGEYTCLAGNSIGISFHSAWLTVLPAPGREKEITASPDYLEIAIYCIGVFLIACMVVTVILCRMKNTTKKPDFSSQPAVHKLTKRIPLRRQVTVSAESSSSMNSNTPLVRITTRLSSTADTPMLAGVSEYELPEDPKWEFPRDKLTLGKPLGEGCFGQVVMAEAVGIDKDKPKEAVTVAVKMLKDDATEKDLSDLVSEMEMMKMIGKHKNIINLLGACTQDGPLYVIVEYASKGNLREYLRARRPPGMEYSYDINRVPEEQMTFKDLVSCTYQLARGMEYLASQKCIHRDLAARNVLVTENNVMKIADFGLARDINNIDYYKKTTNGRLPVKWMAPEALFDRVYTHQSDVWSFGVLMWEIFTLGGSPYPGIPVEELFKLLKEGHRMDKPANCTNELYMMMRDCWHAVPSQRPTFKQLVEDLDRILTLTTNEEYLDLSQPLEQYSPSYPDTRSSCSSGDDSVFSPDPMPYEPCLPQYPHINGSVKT

One may read the IC50 as the concentration needed to halve the response being measured. High values mean lower potency, low ones higher potency. Consider `C=C(C)C(=O)Nc1ccc(-c2c(-c3ccc(C(=O)N4CCCC4)cc3)c3c(N)n[nH]c(=O)c3n2C)cc1` [Example 879], for which the half-maximal inhibitory concentration (IC50) with SNU-16 (SNU-16 cells) and against FGFR2 was 1000 to 100000 nM in each case.
With `C=C(C)C(=O)N[C@H]1C[C@H](c2c(-c3ccc(C(=O)N4CCCC4)cc3)c3c(N)ncnc3n2C)C1` [Example 880], the IC50 in the test on SNU-16 (setting [1]) and against FGFR2 was 1000 to 100000 nM throughout.
Turning to `Cn1c(-c2ccc(NC(=O)CC#N)cc2)c(-c2ccc(C(=O)N3CCCC3)cc2)c2c(N)ncnc21` [Example 881], the half-inhibitory concentration (IC50) with SNU-16 (setting [1]) and on FGFR2 was 1000 to 100000 nM throughout.
With `C=C(C)C(=O)Nc1ccc(-c2c(C3=C(F)C[C@H](C(=O)N4CCCC4)CC3)c3c(N)ncnc3n2C)cc1` [Example 882], the IC50 in the test with SNU-16 (setting [1]) and on FGFR2 was 1000 to 100000 nM in each case.
In the case of `C=CC(=O)N1CC(c2c(-c3ccc(C(=O)c4nccc(C)n4)cc3F)c3c(N)ncnc3n2C)C[C@@H]1C` (stereo partly shown) [Example 885], the IC50 with SNU-16 (SNU-16 cells) and against FGFR2 was 1000 to 100000 nM each time.
As to `C=CC(=O)N1CC(c2c(-c3ccc(C(=O)c4nccc(C)n4)cc3F)c3c(N)ncnc3n2C)C[C@@H]1C` (stereo partly shown) [Example 886], the IC50 was ≤ 100 nM in the test with SNU-16 (SNU-16 cells) and 250 to 1000 nM against FGFR2.
On to `C=CC(=O)N1CC(c2c(C3=CC[C@H](C(=O)N4CCCC4)CC3)c3c(N)ncnc3n2C)C[C@@H]1C` (stereo partly shown) [Example 889], for which the IC50 was 100 to 250 nM in the test on SNU-16 (setting [1]) and 250 to 1000 nM on FGFR2.
Take `C=CC(=O)N1CC(c2c(C3=CC[C@@H](C(=O)N4CCCC4)CC3)c3c(N)ncnc3n2C)C[C@@H]1C` (stereo partly shown) [Example 890]: the IC50 with SNU-16 (setting [1]) and at FGFR2 was 1000 to 100000 nM in each case.
For `C=Cc1nc2cc(-c3c(-c4ccc(C(=O)N5CCCC5)cc4)c4c(N)ncnc4n3C)ccc2n1C` [Example 893], the concentration for half-maximal inhibition (IC50) with SNU-16 (setting [1]) and on FGFR2 was 1000 to 100000 nM in each case.
As for `C=Cc1nc2ccc(-c3c(-c4ccc(C(=O)N5CCCC5)cc4)c4c(N)ncnc4n3C)cc2n1C` [Example 895], the 50% inhibitory concentration (IC50) with SNU-16 (setting [1]) and against FGFR2 was 1000 to 100000 nM throughout.
For the molecule `Cc1ccnc(Oc2ccc(-c3c(-c4ccc(NC(=O)CCl)cc4)n(C)c4ncnc(N)c34)cc2)n1` [Example 897], the half-inhibitory concentration (IC50) was ≤ 100 nM with SNU-16 (setting [1]) and 100 to 250 nM against FGFR2.
For the molecule `C=C(C)C(=O)Nc1ccc(-c2c(-n3ccc(C(=O)N4CCCC4)cc3=O)c3c(N)ncnc3n2C)cc1` [Example 898], the IC50 with SNU-16 (setting [1]) was ≤ 100 nM; on FGFR2, < 100 nM.
For `Cn1c(-c2ccc(NC(=O)C3CN3)cc2)c(-c2ccc(C(=O)N3CCCC3)cc2)c2c(N)ncnc21` (stereo not shown) [Example 901], in that order: 1000 to 100000 nM and 1000 to 100000 nM.
For the molecule `COC(=O)Nc1ccc(-c2c(-c3ccc(C(=O)N4CCCC4)cc3)c3c(N)ncnc3n2C)cc1` [Example 902], the 50% inhibitory concentration (IC50) in the test with SNU-16 (setting [1]) and at FGFR2 was 1000 to 100000 nM in each case.
Take `C=C(C)C(=O)N1CC(c2c(-c3ccc(C(=O)N4CCCC4)cc3)c3c(N)ncnc3n2C)=C[C@@H]1C` [Example 903]: the IC50 in the test on SNU-16 (setting [1]) and against FGFR2 was 1000 to 100000 nM throughout.
For `Cc1ccnc(Oc2ccc(-c3c(-c4ccc(NC(=O)C5=CCOC5)cc4)n(C)c4ncnc(N)c34)cc2)n1` [Example 904], the IC50 in the test with SNU-16 (setting [1]) and against FGFR2 was 1000 to 100000 nM throughout.
In the case of `C=C(C)C(=O)Nc1ccc(-c2c(-c3ccc4c(c3)OCC4c3cccc(C)n3)c3c(N)ncnc3n2C)cc1` (stereo not shown) [Example 907], the results for the 50% inhibitory concentration (IC50) in the test with SNU-16 (setting [1]) and against FGFR2 were ≤ 100 nM and < 100 nM, respectively.
For `C=C(C)C(=O)Nc1ccc(-c2c(-c3ccc(C(=O)NCC(C)C)c(OC)c3)c3c(N)ncnc3n2C)cc1` [Example 910], in that order: 1000 to 100000 nM and 1000 to 100000 nM.
For `C=C(C)C(=O)Nc1ccc(-c2c(-c3ccc(C(=O)NC4CCC4)c(OC)c3)c3c(N)ncnc3n2C)cc1` [Example 911], in that order: ≤ 100 nM and < 100 nM.
In the same order, the values of `C=C(C)C(=O)Nc1ccc(-c2c(-c3ccc(C(=O)NC4CC(F)(F)C4)c(OC)c3)c3c(N)ncnc3n2C)cc1` [Example 912] are ≤ 100 nM and < 100 nM.
For `Cc1ccnc(Oc2ccc(-c3c(-c4ccc(-c5cnc(C#N)o5)cc4)n(C)c4ncnc(N)c34)cc2)n1` [Example 915], the IC50 in the test on SNU-16 (setting [1]) lay in the range of 250 to 1000 nM; against FGFR2 it was 1000 to 100000 nM.
As to `C=CC(=O)N1CCc2ccc(-c3c(-c4ccc(Oc5nccc(C)n5)cc4)c4c(N)ncnc4n3C)cc2C1` [Example 916], the IC50 lay in the range of 100 to 250 nM in the test on SNU-16 (setting [1]) and 1000 to 100000 nM on FGFR2.
In the same order, the values of `C=CC(=O)NCc1ccc(-c2c(-c3ccc(Oc4nccc(C)n4)cc3)c3c(N)ncnc3n2C)cc1` [Example 921] are 250 to 1000 nM and 1000 to 100000 nM.
For `C=C(C)C(=O)Nc1ccc(-c2c(C3=CCN(C(=O)C4CCCC4)CC3)c3c(N)ncnc3n2C)cc1` [Example 922], in that order: 250 to 1000 nM and 250 to 1000 nM.
In the case of `C=C(C)C(=O)Nc1ccc(-c2c(C3=CCN(C(=O)N4CCCC4)CC3)c3c(N)ncnc3n2C)cc1` [Example 923], the IC50 with SNU-16 (setting [1]) fell in the range of 250 to 1000 nM; against FGFR2, 1000 to 100000 nM.
On to `CC1=CCN(c2ccc(-c3c(-c4ccc(Oc5nccc(C)n5)cc4)c4c(N)ncnc4n3C)cc2)C1=O` [Example 924], for which the concentration for half-maximal inhibition (IC50) with SNU-16 (SNU-16 cells) and at FGFR2 was 1000 to 100000 nM each time.
`C=C(C)C(=O)Nc1ccc(-c2c(C3=CC[C@@H](C(=O)N4CCCC4)C[C@@H]3C)c3c(N)ncnc3n2C)cc1` [Example 937]: the IC50 with SNU-16 (setting [1]) and against FGFR2 was 1000 to 100000 nM throughout.
Consider `C=CC(=O)NC(C)(C)c1ccc(-c2c(-c3ccc(Oc4nccc(C)n4)cc3)c3c(N)ncnc3n2C)cc1` [Example 943], for which the IC50 with SNU-16 (setting [1]) and on FGFR2 was 250 to 1000 nM throughout.
Consider `C=C(C)C(=O)Nc1ccc(-c2c(-c3ccc(C(=O)NCC4(F)CCC4)c(OC)c3)c3c(N)ncnc3n2C)cc1` [Example 946], for which the concentration for half-maximal inhibition (IC50) in the test on SNU-16 (setting [1]) fell in the range of 1000 to 100000 nM; on FGFR2 it was 250 to 1000 nM.
As to `C=Cc1ncc(-c2ccc(-c3c(-c4ccc(Oc5nccc(C)n5)cc4)c4c(N)ncnc4n3C)cc2)o1` [Example 947], the IC50 is ≤ 100 nM with SNU-16 (setting [1]) and < 100 nM against FGFR2.
For `Cc1ccnc(Oc2ccc(-c3c(-c4ccc(NCC5CO5)cc4)n(C)c4ncnc(N)c34)cc2)n1` (stereo not shown) [Example 948], in that order: 1000 to 100000 nM and 1000 to 100000 nM.
On to `Cc1ccnc(Oc2ccc(-c3c(-c4ccc(NC(=O)C5=COCC5)cc4)n(C)c4ncnc(N)c34)cc2)n1` [Example 952], for which the results for the IC50 in the test with SNU-16 (setting [1]) and against FGFR2 were ≤ 100 nM and < 100 nM, respectively.
Consider `C=C(C)C(=O)Nc1ccc(-c2c(-c3ccc(C(=O)NC4(COC)CCC4)c(OC)c3)c3c(N)ncnc3n2C)cc1` [Example 956], for which the results for the IC50 with SNU-16 (setting [1]) and against FGFR2 were ≤ 100 nM and < 100 nM, respectively.
For the molecule `Cc1ccnc(Oc2ccc(-c3c(-c4ccc(-c5cnc(C#N)s5)cc4)n(C)c4ncnc(N)c34)cc2)n1` [Example 959], the results for the IC50 in the test on SNU-16 (setting [1]) and at FGFR2 were ≤ 100 nM and 250 to 1000 nM, respectively.
For `C=C(C)C(=O)Nc1ccc(-c2c(-c3ccc(C(=O)N[C@H]4C[C@@H](F)C4)c(OC)c3)c3c(N)ncnc3n2C)cc1` [Example 964], in that order: ≤ 100 nM and < 100 nM.
In the same order, the values of `C=C(C)C(=O)Nc1ccc(-c2c(-c3ccc(C(=O)N[C@H]4C[C@H](F)C4)c(OC)c3)c3c(N)ncnc3n2C)cc1` [Example 965] are ≤ 100 nM and < 100 nM.
In the same order, the values of `C=C(C)C(=O)Nc1ccc(-c2c(-c3ccc(C(=O)N[C@H]4C[C@H](F)C4)c(COC)c3)c3c(N)ncnc3n2C)cc1` [Example 966] are ≤ 100 nM and < 100 nM.
Take `C=C(C)C(=O)Nc1ccc(-c2c(-c3ccc(C(=O)N[C@H]4C[C@@H](F)C4)c(COC)c3)c3c(N)ncnc3n2C)cc1` [Example 967]: the IC50 in the test with SNU-16 (setting [1]) and on FGFR2 was 1000 to 100000 nM each time.
As for `C#Cc1ncc(-c2c(-c3ccc(C(=O)N4CCCC4)cc3)c3c(N)ncnc3n2C)cn1` [Example 968], the IC50 in the test on SNU-16 (setting [1]) and against FGFR2 was 250 to 1000 nM each time.
On to `C=C(C)C(=O)Nc1ccc(-c2c(C3=CCC(C(=O)N4CCCC4)CC3(F)F)c3c(N)ncnc3n2C)cc1` (stereo not shown) [Example 969], for which the figures for the half-maximal inhibitory concentration (IC50) in the test with SNU-16 (setting [1]) and at FGFR2 were ≤ 100 nM and < 100 nM, respectively.
For `C=C(C)C(=O)Nc1ccc(-c2c(-c3ccc(C(=O)N[C@H]4C[C@H](F)C4)c(OC(F)F)c3)c3c(N)ncnc3n2C)cc1` [Example 970], in that order: 1000 to 100000 nM and 1000 to 100000 nM.
For `C=C(C)C(=O)Nc1ccc(-c2c(-c3ccc(C(=O)N[C@H]4C[C@@H](F)C4)c(OC(F)F)c3)c3c(N)ncnc3n2C)cc1` [Example 971], in that order: 250 to 1000 nM and 250 to 1000 nM.
In the same order, the values of `C=C(C)C(=O)Nc1ccc(-c2c(-c3ccc(C(=O)N[C@H]4C[C@@H](F)C4)c(OC4CC4)c3)c3c(N)ncnc3n2C)cc1` [Example 976] are 1000 to 100000 nM and 1000 to 100000 nM.
On to `C=C(C)C(=O)Nc1ccc(-c2c(-c3ccc(C(=O)N[C@H]4C[C@H](F)C4)c(OC4CC4)c3)c3c(N)ncnc3n2C)cc1` [Example 978], for which the half-maximal inhibitory concentration (IC50) in the test with SNU-16 (setting [1]) and at FGFR2 was 250 to 1000 nM throughout.
Consider `CC(=O)C(=O)Nc1ccc(-c2c(-c3ccc(C(=O)N4CCc5ccccc54)cc3)c3c(N)ncnc3n2C)cc1` [Example 980], for which the IC50 is ≤ 100 nM in the test on SNU-16 (setting [1]) and < 100 nM against FGFR2.
With `C=C(C)C(=O)Nc1ccc(-c2c(-c3ccc(C(=O)NCC4CCC4)c(OC)n3)c3c(N)ncnc3n2C)cc1` [Example 983], the IC50 in the test with SNU-16 (setting [1]) was ≤ 100 nM; at FGFR2 it was < 100 nM.
As for `C=Cc1ncc(-c2ccc(-c3c(-c4ccc(Oc5nccc(C)n5)cc4)c4c(N)ncnc4n3C)cc2)s1` [Example 984], the IC50 in the test on SNU-16 (setting [1]) was ≤ 100 nM; on FGFR2, < 100 nM.
`C=CC(=O)N1CC=C(c2ccc(-c3c(-c4ccc(Oc5cccc(C)n5)cc4)c4c(N)ncnc4n3C)cc2)C1` [Example 989]: the results for the IC50 with SNU-16 (setting [1]) and against FGFR2 were 250 to 1000 nM and 1000 to 100000 nM, respectively.
Consider `C=CC(=O)Nc1ccc(-c2c(-c3ccc(C(=O)NCC(C)C)cc3)c3c(N)ncnc3n2C)cc1` [Example 990], for which the IC50 in the test with SNU-16 (setting [1]) was ≤ 100 nM; at FGFR2, < 100 nM.
On to `C=C(C)C(=O)Nc1ccc(-c2c(C3=CC[C@H](C(=O)N4CCC[C@@H]4C)CC3)c3c(N)ncnc3n2C)cc1` [Example 991], for which the half-inhibitory concentration (IC50) with SNU-16 (setting [1]) is ≤ 100 nM; against FGFR2, < 100 nM.
